Our source for the IC50 values is US9809573B2, “Substituted pyridine derivatives useful as GSK-3 inhibitors” (priority 2013, dated 2017).

One test concerns pTau. The test can be described thus: pTau assay (method not described). The format is cell-based.
In a further test the target is GSK3α (Homo sapiens, UniProt P49840). The test can be described thus: biochemical. On the procedure: (§1) The kinase assay was performed in V-bottom 384-well plates. […] The reaction was incubated at room temperature for 20 hours and terminated by adding 45 μl of 35 mM EDTA to each sample. The reaction mixture was analyzed on the Caliper LabChip3000 (Caliper, Hopkinton, Mass.) by electrophoretic separation of the unphosphorylated substrate and phosphorylated product. […] Compounds were dissolved at 10 mM in dimethylsulfoxide (DMSO) and evaluated at eleven concentrations. IC50 values were derived by non-linear regression analysis.

A further test has as its target GSK3β (Homo sapiens, UniProt P49841). The test can be described thus: GSK3β kinase assay (Caliper LabChip3000, fluoresceinated peptide substrate). The format is biochemical. As for the experimental part:
as §1

[1] abbreviates: second value of the cell, 250 pM enzyme, 20 uM ATP, 20 hours at room temperature, read-out: GSK3β/α (nM): GSK3α IC50.
[2] abbreviates: first value of the cell, 250 pM enzyme, 20 uM ATP, 20 hours at room temperature, read-out: GSK3β/α (nM): GSK3β IC50.

Read-outs that look alike come from different tables or passages of the source.

GSK3α, sequence (P49840 whole entry, species assumed): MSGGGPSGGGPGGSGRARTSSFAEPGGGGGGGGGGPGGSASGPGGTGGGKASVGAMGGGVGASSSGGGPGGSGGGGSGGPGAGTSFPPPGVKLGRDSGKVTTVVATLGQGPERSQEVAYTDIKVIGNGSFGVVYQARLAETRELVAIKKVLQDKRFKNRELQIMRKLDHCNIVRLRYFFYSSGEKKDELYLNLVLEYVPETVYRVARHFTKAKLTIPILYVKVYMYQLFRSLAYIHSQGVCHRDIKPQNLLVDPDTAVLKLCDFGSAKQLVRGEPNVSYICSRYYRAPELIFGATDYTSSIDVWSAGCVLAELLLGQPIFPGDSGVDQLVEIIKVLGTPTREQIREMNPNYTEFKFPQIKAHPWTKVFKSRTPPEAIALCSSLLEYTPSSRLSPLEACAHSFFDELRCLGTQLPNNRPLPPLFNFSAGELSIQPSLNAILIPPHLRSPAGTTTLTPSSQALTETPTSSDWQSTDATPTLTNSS
GSK3β, sequence (P49841 whole entry, species assumed): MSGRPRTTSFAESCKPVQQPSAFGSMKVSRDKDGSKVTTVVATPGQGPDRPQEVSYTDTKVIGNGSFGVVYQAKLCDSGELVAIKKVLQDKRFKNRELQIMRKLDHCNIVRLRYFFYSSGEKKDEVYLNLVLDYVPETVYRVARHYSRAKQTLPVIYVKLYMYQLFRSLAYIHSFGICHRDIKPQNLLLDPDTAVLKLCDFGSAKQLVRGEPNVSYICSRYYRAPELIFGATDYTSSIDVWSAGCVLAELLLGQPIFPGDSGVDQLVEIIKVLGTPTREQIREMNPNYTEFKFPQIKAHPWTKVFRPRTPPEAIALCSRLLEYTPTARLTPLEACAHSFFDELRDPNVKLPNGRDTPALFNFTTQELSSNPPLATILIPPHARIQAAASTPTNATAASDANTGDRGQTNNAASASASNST

On to `NC(=O)c1cnc(NC(=O)c2ccnc(NC(=O)C3CC3)c2)s1` [Example 183, 2-(2-(cyclopropanecarboxamido)isonicotinamido)thiazole-5-carboxamide], for which the values for the IC50 in the test on pTau (read-out: pTau), at GSK3α (setting [1]) and at GSK3β (setting [2]) were at least 10000 nM, 200 nM and 530 nM, respectively.
With `Cc1ccncc1NC(=O)c1ccnc(NC(=O)C2CC2)c1` [Example 9, 2-(Cyclopropanecarboxamido)-N-(4-methylpyridin-3-yl)isonicotinamide], the IC50 with pTau (read-out: pTau) came to 1200 nM; on GSK3α (setting [1]) it was 22 nM; against GSK3β, 30 nM.
Taken in the same sequence, the figures for `CC(C)C(=O)Nc1cc(C(=O)Nc2cnccc2-c2ccc(Cl)cc2)ccn1` [Example 186, N-(4-(4-chlorophenyl)pyridin-3-yl)-2-isobutyramidoisonicotinamide] were 360 nM, 6.5 nM and 20 nM.
Consider `CC(C)C(=O)Nc1cc(C(=O)Nc2cnccc2N2CCC(F)(F)CC2)c(F)cn1` [Example 206, N-(4-(4,4-difluoropiperidin-1-yl)pyridin-3-yl)-5-fluoro-2-isobutyramidoisonicotinamide], for which the values for the IC50 in the test with pTau (read-out: pTau), on GSK3α (setting [1]) and at GSK3β (setting [2]) were 190 nM, 2.1 nM and 3 nM, respectively.
Regarding `O=C(Nc1cnccc1-c1ccc(Cl)cc1)c1ccnc(NC(=O)C2CCC(F)(F)C2)c1` (stereo not drawn) [Example 231, N-(4-(4-chlorophenyl)pyridin-3-yl)-2-(3,3-difluorocyclopentanecarboxamido)isonicotinamide], the figures for the IC50 in the test on pTau (read-out: pTau), at GSK3α (setting [1]) and at GSK3β were 30 nM, 0.9 nM and 0.46 nM, respectively.
As for `O=C(Nc1cncc(-c2cc(F)ccc2F)c1)c1ccnc(NC(=O)C2CCC(F)(F)C2)c1` (stereo not drawn) [Example 236, 2-(3,3-difluorocyclopentanecarboxamido)-N-(5-(2,5-difluorophenyl)pyridin-3-yl)isonicotinamide], the IC50 in the test on pTau (read-out: pTau) was determined as 180 nM; at GSK3α (setting [1]) it was 2.1 nM; on GSK3β (setting [2]), 4.3 nM.
In the case of `O=C(Nc1c(-c2ccccc2)ccnc1Cl)c1ccnc(NC(=O)C2CC2)c1` [Example 59, N-(2-chloro-4-phenylpyridin-3-yl)-2-(cyclopropanecarboxamido)isonicotinamide], the IC50 with pTau (read-out: pTau) is 8200 nM; at GSK3α (setting [1]) it was 70 nM; at GSK3β (setting [2]) it was 78 nM.
In the case of `O=C(Nc1cncc(N2CCOCC2)c1)c1ccnc(NC(=O)C2CC2)c1` [Example 109, 2-(cyclopropanecarboxamido)-N-(5-morpholinopyridin-3-yl)isonicotinamide], the figures for the IC50 in the test on pTau (read-out: pTau), at GSK3α (setting [1]) and on GSK3β were 2000 nM, 17 nM and 73 nM, respectively.
`O=C(Nc1cncc(-c2ccccc2)c1)c1ccnc(NC(=O)C2CC2)c1` [Example 104, 2-(cyclopropanecarboxamido)-N-(5-phenylpyridin-3-yl)isonicotinamide]: the IC50 in the test on pTau (read-out: pTau (nM)) amounted to 270 nM; against GSK3α, 2 nM; against GSK3β it was 5 nM.
In the case of `CC(O)c1ccncc1NC(=O)c1ccnc(NC(=O)C2CC2)c1` (stereo not drawn) [Example 17, 2-(Cyclopropanecarboxamido)-N-(4-(1-hydroxyethyl)pyridin-3-yl)isonicotinamide], the IC50 with pTau (read-out: pTau) was 35 nM; at GSK3α (setting [1]) it was 1.4 nM; against GSK3β, 0.25 nM.
Regarding `O=C(Nc1cncc(-c2ccccc2)c1)c1ccnc(NC(=O)C2CC(F)(F)C2)c1` [Example 214, 2-(3,3-difluorocyclobutanecarboxamido)-N-(5-phenylpyridin-3-yl)isonicotinamide], the IC50 came to 490 nM in the test with pTau (read-out: pTau), 2.9 nM at GSK3α (setting [1]) and 4.1 nM against GSK3β.
In the case of `CC(C)n1cc(NC(=O)c2ccnc(NC(=O)C3CC3)c2)cn1` [Example 171, 2-(cyclopropanecarboxamido)-N-(1-isopropyl-1H-pyrazol-4-yl)isonicotinamide], the IC50 with pTau (read-out: pTau) is 4000 nM; at GSK3α (setting [1]), 170 nM; on GSK3β (setting [2]) it was 370 nM.
`O=C(Nc1cncc(-c2ccc(F)cc2)c1)c1ccnc(NC(=O)C2CC2)c1` [Example 111, 2-(cyclopropanecarboxamido)-N-(5-(4-fluorophenyl)pyridin-3-yl)isonicotinamide]: the IC50 with pTau (read-out: pTau) is 570 nM; on GSK3α (setting [1]), 0.95 nM; at GSK3β, 6.4 nM.
As for `O=C(Nc1cnccc1-c1cc2ccccc2o1)c1ccnc(NC(=O)C2CC2)c1` [Example 95, N-(4-(benzofuran-2-yl)pyridin-3-yl)-2-(cyclopropanecarboxamido)isonicotinamide], the IC50 with pTau (read-out: pTau) was determined as 100 nM; at GSK3α (setting [1]) it was 1.4 nM; on GSK3β (setting [2]) it was 1.9 nM.
Taken in the same sequence, the figures for `CCC1(c2cc(Cl)ncc2NC(=O)c2ccnc(NC(=O)C3CCC(F)(F)C3)c2)OCCO1` (stereo not drawn) [Example 238, N-(6-chloro-4-(2-ethyl-1,3-dioxolan-2-yl)pyridin-3-yl)-2-(3,3-difluorocyclopentanecarboxamido)isonicotinamide] were 8.3 nM, 0.07 nM and 0.11 nM.
In the case of `O=C(Nc1cncc(-c2ccc(OC(F)(F)F)cc2)c1)c1ccnc(NC(=O)C2CC2)c1` [Example 120, 2-(cyclopropanecarboxamido)-N-(5-(4-(trifluoromethoxy)phenyl)pyridin-3-yl)isonicotinamide], the values for the IC50 in the test with pTau (read-out: pTau), at GSK3α (setting [1]) and on GSK3β (setting [2]) were 5400 nM, 8 nM and 11 nM, respectively.
Consider `O=C(Nc1cncc(-c2ccccc2F)n1)c1ccnc(NC(=O)C2CC2)c1` [Example 180, 2-(Cyclopropanecarboxamido)-N-(6-(2-fluorophenyl)pyrazin-2-yl)isonicotinamide], for which the IC50 in the test with pTau (read-out: pTau) amounted to 190 nM; on GSK3α (setting [1]), 1.2 nM; at GSK3β (setting [2]), 6.2 nM.
On to `O=C(Nc1cncc(-c2cncc(F)c2)c1)c1ccnc(NC(=O)C2CC2)c1` [Example 161, 2-(cyclopropanecarboxamido)-N-(5′-fluoro-[3,3′-bipyridin]-5-yl)isonicotinamide], for which the IC50 with pTau (read-out: pTau) came to 175 nM; on GSK3α (setting [1]), 0.6 nM; on GSK3β (setting [2]), 1.7 nM.
The corresponding values for `O=C(Nc1cncc(-n2ccnc2)c1)c1ccnc(NC(=O)C2CC2)c1` [Example 119, N-(5-(1H-imidazol-1-yl)pyridin-3-yl)-2-(cyclopropanecarboxamido)isonicotinamide] are 410 nM, 1 nM and 2.4 nM.
In the case of `CC1(C)CN(c2ccncc2NC(=O)c2ccnc(NC(=O)C3CC3)c2)CCO1` [Example 87, 2-(Cyclopropanecarboxamido)-N-(4-(2,2-dimethylmorpholino)pyridin-3-yl)isonicotinamide], the IC50 with pTau (read-out: pTau) is 25 nM; on GSK3α (setting [1]) it was 0.39 nM; against GSK3β, 0.79 nM.
For the compound `CN(C)Cc1ccccc1-c1cncc(NC(=O)c2ccnc(NC(=O)C3CC3)c2)c1` [Example 145, 2-(cyclopropanecarboxamido)-N-(5-(2-((dimethylamino)methyl)phenyl)pyridin-3-yl)isonicotinamide], the IC50 in the test on pTau (read-out: pTau) is 1400 nM; on GSK3α (setting [1]), 170 nM; at GSK3β (setting [2]), 780 nM.
Taken in the same sequence, the figures for `CC(C)C(=O)Nc1cc(C(=O)Nc2cnccc2OCCN2CCCC2)ccn1` [Example 188, 2-Isobutyramido-N-(4-(2-(pyrrolidin-1-yl)ethoxy)pyridin-3-yl)isonicotinamide] were 2200 nM, 19 nM and 39 nM.
As to `O=C(Nc1cnccc1N1CCC(F)(F)CC1)c1ccnc(NC(=O)C2CC2)c1` [Example 45, 2-(Cyclopropanecarboxamido)-N-(4-(4,4-difluoropiperidin-1-yl)pyridin-3-yl)isonicotinamide], the IC50 was found to be 5.1 nM in the test with pTau (read-out: pTau (nM)), 0.19 nM at GSK3α and 0.22 nM at GSK3β.
For `O=C(Nc1cnccc1-c1cc(Br)cc(Br)c1)c1ccnc(NC(=O)C2CC2)c1` [Example 167, 2-(cyclopropanecarboxamido)-N-(4-(3,5-dibromophenyl)pyridin-3-yl)isonicotinamide], the IC50 is 5500 nM in the test with pTau (read-out: pTau), 9.3 nM at GSK3α (setting [1]) and 20 nM on GSK3β (setting [2]).
Take `CC(C)C(=O)Nc1cc(C(=O)Nc2cnccc2-c2ccccc2)ccn1` [Example 185, 2-Isobutyramido-N-(4-phenylpyridin-3-yl)isonicotinamide]: the IC50 in the test with pTau (read-out: pTau) was determined as 180 nM; on GSK3α (setting [1]) it was 4.2 nM; against GSK3β, 1.4 nM.
Taken in the same sequence, the figures for `Cc1ccc(-c2cncc(NC(=O)c3ccnc(NC(=O)C4CC4)c3)c2)cn1` [Example 162, 2-(cyclopropanecarboxamido)-N-(6′-methyl-[3,3′-bipyridin]-5-yl)isonicotinamide] were 115 nM, 1.1 nM and 2.5 nM.
Taken in the same sequence, the figures for `CCOc1ccncc1NC(=O)c1ccnc(NC(=O)C2CCCC2)c1` [Example 226, 2-(Cyclopentanecarboxamido)-N-(4-ethoxypyridin-3-yl)isonicotinamide] were 31 nM, 0.41 nM and 0.62 nM.
For the compound `O=C(O)c1cncc(NC(=O)c2ccnc(NC(=O)C3CC3)c2)c1` [Example 103, 5-(2-(cyclopropanecarboxamido)isonicotinamido)nicotinic Acid], the figures for the IC50 in the test with pTau (read-out: pTau), at GSK3α (setting [1]) and on GSK3β (setting [2]) were at least 10000 nM, 121 nM and 197 nM, respectively.
The corresponding values for `O=C(Nc1cnccc1-c1ccccc1)c1ccnc(NC(=O)[C@H]2C[C@H](O)C2)c1` [Example 219, 2-((1,3-Trans)-3-hydroxycyclobutanecarboxamido)-N-(4-phenylpyridin-3-yl)isonicotinamide] are 450 nM, 6.4 nM and 17 nM.
